Measurements: paper PMC12751014, “Non-Catalytic Inhibitors of the p38/MK2 Interface: Repurposing Approved Drugs to Target Neuroinflammation in Alzheimer’s Disease” (Journal of Medicinal Chemistry, 2025)
Entries after “also recorded” stand apart in the source; their conditions may differ. Values belong to the molecule of their own block, whether it stands above or below them. Where no end group is shown, it is not given here.

Key:
[1] = molecular target: T1, p38/MK2 interaction (Homo sapiens, UniProt Q16539); experiment: TR-FRET assay with purified recombinant His-p38 and GST-MK2; type: binding; settings: for inhibition at 30 µM: read-out: inhibition of p38/MK2 PPI at 30 μM, recombinant purified proteins; for IC50: purified His-p38 and GST-MK2, read-out: IC50, inhibition of p38/MK2 PPI (TR-FRET, recombinant purified proteins)
T1 sequence (Q16539 whole entry): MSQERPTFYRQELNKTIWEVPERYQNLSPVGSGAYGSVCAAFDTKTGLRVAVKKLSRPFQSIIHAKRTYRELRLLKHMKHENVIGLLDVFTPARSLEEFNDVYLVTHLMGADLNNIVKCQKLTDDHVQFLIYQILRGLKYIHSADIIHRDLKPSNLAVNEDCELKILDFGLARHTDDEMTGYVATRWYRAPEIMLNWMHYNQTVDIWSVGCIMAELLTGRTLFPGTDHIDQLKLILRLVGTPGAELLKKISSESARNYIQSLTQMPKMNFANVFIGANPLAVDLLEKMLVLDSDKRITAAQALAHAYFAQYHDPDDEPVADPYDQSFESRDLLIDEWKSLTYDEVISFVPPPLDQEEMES
Method: ENSG00000112062, UniProt ID: Q16539-1) was cloned into a pMCSG7 vector and transformed into Escherichia coli strain BL21(DE3). […] The resuspended cells were lysed through sonication. The lysate was centrifuged for 20 min at 70,000g at 4 °C and the clarified supernatant was passed through a gravity column containing 2 mL Ni-NTA resin pre-equilibrated with equilibration buffer. The resin was then washed with 25 column volumes of equilibration buffer supplemented with 40 mM imidazole, and the protein was eluted with equilibration buffer supplemented with 200 mM imidazole. […] The purity of the enzyme was verified by sodium dodecyl sulfate-polyacrylamide gel electrophoresis (SDS-PAGE) with Coomassie staining, aliquots flash frozen in liquid nitrogen, and stored at -80 °C.

[2] = test system: HMC3 microglial cells; experiment: qRT-PCR of LPS-induced cytokine expression in HMC3 microglial cells; type: cell-based, human; settings: HMC3, 5 μM compound 1 h before 100 ng/mL LPS 4 h
Method: HMC3 cells were treated with 100 ng/mL E. coli LPS (Sigma-Aldrich, catalog no. L4005) for 4 h in DMEM media. […] Following pretreatment, iMGLs were challenged with 100 ng/mL LPS and 20 ng/mL interferon-γ (IFN-γ) for 24 h to induce an inflammatory response. At the end of the stimulation, cell lysates were collected for qPCR analysis of TNF-α […] gene expression. Total RNA isolation from cell samples was conducted using the RNeasy Plus kit (Qiagen, catalog no. 74134) according to manufacturer instructions and treated with DNase I (Invitrogen, catalog no. 18068-015). Extracted RNA was quantified using the Nanodrop One Spectrophotometer (Thermo Scientific) and then reverse-transcribed into cDNA in equal quantity (<1000 ng/reaction) with the SuperScript III System (Invitrogen, catalog no. 18080-051) following manufacturer directions. cDNA sample was treated with RNase H (Invitrogen, catalog no. 18021014) and diluted to 4 ng/μL equivalent of the starting total RNA. qPCR was performed in 96-well PCR plates (BioRad, catalog no. HSP9601) using the Realplex4Mastercycler (Eppendorf). Each reaction well combines 5 μL cDNA sample, 10 μL 2X SYBR Green Supermix (BioRad, catalog no. 1725271), 1 μL 5 μM primer mix for each target gene, and nuclease-free water up to 20 μL. […] The primer sequences used were: TNFα forward [NT], reverse [NT]-6 forward [NT], reverse [NT]-1β forward [NT], reverse [NT] Each gene was expression-normalized against the housekeeping gene GAPDH with the primer sequences: forward [NT], reverse [NT] Primers were obtained from Integrated DNA Technologies in lyophilized form. The cycler program was set to denaturation at 95 °C for 15 s, followed by annealing and extension at 60 °C for 60 s, repeated for 40 PCR cycles. Melting curve analyses were performed for each sample to ensure primer specificity. The experiment was performed in biological quadruplicates and technical quadruplicates.

[3] = molecular target: T1, p38/MK2 interaction; experiment: Cell lysate-based TR-FRET (VF-p38 / GST-MK2, HEK293T lysate), dose-response; type: binding; settings: read-out: IC50, p38/MK2 PPI, cell lysate-based TR-FRET
[4] = molecular target: VF-tagged p38 / His-tagged MK2 346–400 docking peptide (Homo sapiens, UniProt Q16539); experiment: Cell lysate-based TR-FRET competition assay, VF-p38 / His-MK2 346–400 docking peptide; settings: HEK293T lysate TR-FRET; read-out: IC50, binding of His-MK2 346–400 docking peptide to VF-p38
Chain of VF-tagged p38 / His-tagged MK2 346–400 docking peptide (Q16539 whole entry): as above

[5] = molecular target: T1, p38/MK2 interaction; experiment: TR-FRET ultra-high-throughput screening (uHTS), 1536-well, HEK293T lysate VF-p38α / GST-MK2; type: binding; design: inhibition of p38/MK2 interaction, primary screen: concentration or dose not given beside the values; settings: for inhibition of p38/MK2 interaction, primary screen: relative to DMSO control, 1536-well; for 620 nm Fold over Control: fluorescence interference readout; for Pct of control: uHTS TR-FRET signal, Emory Enriched Library
[6] = molecular target: T2, His-tagged p38α (MAPK14), purified recombinant (human, UniProt Q16539-1 1-360); experiment: fluorescence polarisation; 10 nM FITC-MK2 peptide with His-p38α serially diluted 2-fold from a 5 uM working solution; 20 mM Tris-HCl pH 7.0, 50 mM NaCl, 0.01% NP-40; 384-well plate; settings: both partners purified
T2 construct: also called His-p38; His-p38α; source: E. coli BL21(DE3), purified (Ni-NTA, S200 size exclusion), in-house; or bought: Abcam AB271606; for the FP assay obtained from research collaborators
T2 sequence (Q16539 whole entry): as above

[7] = molecular target: T2, His-tagged p38α (MAPK14), purified …; experiment: FRET or BRET; TR-FRET with purified His-p38α (10 nM) and GST-MK2 (1 uM), anti-His-d2 and anti-GST-Tb antibodies; 20 mM Tris-HCl pH 7.0, 50 mM NaCl, 0.01% NP-40; room temperature, 2 h; peptides or compounds added as competitors; settings: both partners purified

Molecule: Cc1cn(-c2cc(NC(=O)c3[nH]cnc3C#N)cc(C(F)(F)F)c2)cn1 [Compound 9]
inhibition at 30 µM [1]: < 50%

Molecule: CNC(=O)c1ccc(CCNC(=O)C(=O)Nc2cc(-n3cnc(C)c3)cc(C(F)(F)F)c2)cc1 [Compound 6]
IC50 [1]: 21.3 µM

Molecule: Cc1cn(-c2cc(NC(=O)c3ccc(O)c(Nc4nccc(-c5cccnc5)n4)c3)cc(C(F)(F)F)c2)cn1 [Compound 4]
IC50 [1]: 8.24 µM

Molecule: O=c1ncn2nc(Sc3ccc(F)cc3F)ccc2c1-c1c(Cl)cccc1Cl [VX-745]
disruption of p38/MK2 interaction (TR-FRET signal) ([1]; recombinant p38 and MK2 purified from E. coli): failed to disrupt the interaction; also recorded: failed to reduce the TR-FRET signal

Molecule: CCc1cn(-c2cc(NC(=O)c3ccc(C)c(Nc4nccc(-c5cccnc5)n4)c3)cc(C(F)(F)F)c2)cn1 [Compound 2]
IC50 [1]: 2.27 µM

Molecule: C=CC(=O)Nc1ccc2ncnc(Nc3ccc(OCc4cccc(F)c4)c(Cl)c3)c2c1 [AST-1306, N-[4-[3-chloro-4-[(3-fluorophenyl)methoxy]anilino]quinazolin-6-yl]prop-2-enamide;4-methylbenzenesulfonic acid]
620 nm Fold over Control [5]: 1.01 | Pct of control [5]: 9.2 Pct of control

Molecule: Cc1cn(-c2cc(NC(=O)c3ccc(C)c(Nc4ncccn4)c3)cc(C(F)(F)F)c2)cn1 [Compound 5]
IC50 [1]: 11.5 µM

Molecule: Cc1cn(-c2cc(C(=O)Nc3ccc(C)c(Nc4nccc(-c5cccnc5)n4)c3)cc(C(F)(F)F)c2)cn1 [Compound 3]
IC50 [1]: 7.45 µM

Molecule: Cc1cn(-c2cc(NC(=O)Nc3nnc(-c4ccncc4)s3)cc(C(F)(F)F)c2)cn1 [Compound 7]
inhibition at 30 µM [1]: < 50%

Molecule: CCCCCCCCCCCCc1ccc(S(=O)(=O)Nc2nncs2)cc1 [PHT-427, 4-dodecyl-N-(1,3,4-thiadiazol-2-yl)benzenesulfonamide]
620 nm Fold over Control [5]: 0.94 | Pct of control [5]: -2.49 Pct of control

Molecule: Cc1cn(-c2cc(NC(=O)C(=O)NCc3cccc(C(N)=O)c3)cc(C(F)(F)F)c2)cn1 [Compound 8]
inhibition at 30 µM [1]: < 50%

Molecule: Cc1cc(C(C#N)c2ccc(Cl)cc2)c(Cl)cc1NC(=O)c1cc(I)cc(I)c1O (stereo not drawn) [closantel]
inhibition of p38/MK2 interaction, primary screen [5]: 53%

B1: FITC-MK2 370–393 peptide (peptide, UniProt P49137 370-393, looked up)
peptide: IKIKKIEDASNPLLLKRRKKARAL
modifications: not fully specified (N-terminus); also: FITC label (position not given here)
notes: MK2 (MAPKAPK2) C-terminal docking motif, residues 370-393 (I370-L393); the methods name the peptide 370-390; also called I370–L393; FITC conjugated MK2 370–390 peptide (methods); source: synthetic peptide, bought: GenScript
EC50 [6]: 26.9 nM | IC50 [7]: 420 nM

B2: FITC-MK2 369–382 peptide (peptide, UniProt P49137 369-382, looked up)
peptide: QIKIKKIEDASNPL
modifications: not fully specified (N-terminus); also: FITC label (position not given here)
notes: MK2 (MAPKAPK2) C-terminal docking motif, residues 369-382 as named in the text; 369-382 would be 14 residues; the legend's I370-L382 is 13 residues; also called I370-L382; truncated 13-residue peptide
IC50 [7]: 4260 nM

Further lines, with some results ahead:

IC50 [1]: 6.9 µM | IC50 [3]: 10 µM | IC50 [4]: 14.4 µM | inhibition of p38/MK2 interaction, primary screen [5]: 82%
Molecule: COc1cc2nc(N(C)CCCNC(=O)C3CCCO3)nc(N)c2cc1OC (stereo not drawn) [alfuzosin]
LPS-induced TNF-α, IL-6, and IL-1β expression [2]: significantly (p-values <0.05) suppressed

inhibition of p38/MK2 interaction, primary screen [5]: 51%
Molecule: CN(C)[C@@H]1C(O)=C(C(N)=O)C(=O)[C@@]2(O)C(O)=C3C(=O)c4c(O)cccc4[C@@](C)(O)[C@H]3[C@H](O)[C@@H]12 [oxytetracycline]

IC50 [1]: 4.4 µM | IC50 [3]: 30.1 µM | IC50 [4]: 4.6 µM | inhibition of p38/MK2 interaction, primary screen [5]: 58%
Molecule: COc1cc2nc(N3CCN(C(=O)C4COc5ccccc5O4)CC3)nc(N)c2cc1OC (stereo not drawn) [doxazosin]
LPS-induced TNF-α, IL-6, and IL-1β expression [2]: significantly (p-values <0.05) suppressed

inhibition at 30 µM [1]: < 50%
Molecule: COc1ccc(CC(=O)Nc2cc(-n3cnc(C)c3)cc(C(F)(F)F)c2)nc1 [Compound 10]

inhibition of p38/MK2 interaction, primary screen [5]: 73%
Molecule: CS(=O)(=O)c1ccc(C2=C(c3ccccc3)C(=O)OC2)cc1 [rofecoxib]

inhibition of p38/MK2 interaction, primary screen [5]: 51%
Molecule: C[C@@H]1[C@H](O)[C@@H](C)/C=C/C=C/C=C/C=C/C=C/C=C/C=C/[C@H](O[C@@H]2O[C@H](C)[C@@H](O)[C@H](N)[C@@H]2O)C[C@@H]2O[C@](O)(C[C@@H](O)C[C@@H](O)[C@H](O)CC[C@@H](O)C[C@@H](O)CC(=O)O[C@H]1C)C[C@H](O)[C@H]2C(=O)O [amphotericin B]

inhibition of p38/MK2 interaction, primary screen [5]: 74%
Molecule: C=C(c1ccc(C(=O)O)cc1)c1cc2c(cc1C)C(C)(C)CCC2(C)C [bexarotene]

inhibition of p38/MK2 interaction, primary screen [5]: 68%
Molecule: CCOc1nc2cccc(C(=O)OC(C)OC(=O)OC3CCCCC3)c2n1Cc1ccc(-c2ccccc2-c2nnn[nH]2)cc1 (stereo not drawn) [candesartan cilexetil]

inhibition of p38/MK2 interaction, primary screen [5]: 56%
Molecule: CN1CCc2cccc3c2[C@H]1Cc1ccc(O)c(O)c1-3 [apomorphine]

IC50 [1]: 6.2 µM | IC50 [3]: 10.5 µM | IC50 [4]: 8.3 µM | inhibition of p38/MK2 interaction, primary screen [5]: 77%
Molecule: COc1cc2nc(N3CCN(C(=O)C4CCCO4)CC3)nc(N)c2cc1OC (stereo not drawn) [terazosin]
LPS-induced TNF-α, IL-6, and IL-1β expression [2]: significantly (p-values <0.05) suppressed
